Earlier results, collected in the CATMoS acute toxicity set (Mansouri et al. 2021).

assay: rat acute oral toxicity; conditions: in vivo
Description: […]The data set underlying the modeling effort for this project was initially compiled by NICEATM and U.S. EPA’s CCTE. Briefly, LD50 data were collected from rat acute oral systemic toxicity tests, including limit tests, ranges/confidence intervals, and discrete LD50 values. The full data set included 21,200 LD50 entries for 15,688 substances. […] Data were reviewed to ensure that LD50 values with obvious errors in the extracted data such as unit conversion errors (e.g., comma and decimal separator misplacements) were either fixed or removed. After this review, 16,209 LD50 values remained. Many of the chemicals represented had multiple LD50 entries, requiring that a single representative value per Chemical Abstracts Service Registry Number (CASRN) identifier be defined to facilitate modeling efforts. Based on ATWG feedback and to define the representative LD50 as a protective value while accounting for the distribution across multiple LD50s, the median of the lowest quartile was computed using only discrete LD50 values (omitting limit test data and range and confidence interval data). A detailed summary of the data compilation is available online on the NICEATM webpage dedicated to the collaborative modeling project (NTP 2020).
[…][…] For categorical designations, limit test and range/confidence interval LD50 data were integrated wherever possible. As such, the number of chemicals with end point values/calls varies across the modeling end points (Table 3) based on whether chemicals had representative LD50 values and/or other data. If a chemical had both, the representative value was used to determine categorical calls rather than limit test data. Some data were useable only for certain end points and categories depending on the thresholds. For example, ranges that spanned multiple hazard categories were considered only for the binary (very toxic/nontoxic) end points and omitted from rendering a determination for hazard category assignment.
[…]The final data set comprising 11,992 chemicals was split into training and evaluation sets […], respectively. This process was performed semirandomly by ordering chemicals based on the five end points (categorical and continuous LD50 values) and partitioning every fourth record into the evaluation set accordingly. This approach was taken to ensure an equivalent distribution of the LD50 values and the different hazard categories between the training and the evaluation sets without supervised sampling of the chemicals based on structures (Figure 1A). The sources of the chemical structures were also kept equivalent between the two sets, with chemical structures obtained from DSSTox, being the highest quality, representing over 75% of each set (Figure 1B).

Row | Structure (SMILES) | LD50 [mg/kg]
1 | CCNC(=O)Oc1c(Cl)c(Cl)cc2[nH]c(C(F)(F)F)nc12 | 103
2 | CCNc1nc(NCC)nc(OC)n1 | 535
3 | ClC1=C(Cl)C2(Cl)C3C(Br)C=CC3C1(Cl)C2(Cl)Cl (stereo unspecified) | 1040
4 | CCCOCCN(C(=O)CCl)c1c(CC)cccc1CC | 2200
5 | c1cc2c(c(NC3=NCCN3)c1)CCCC2 | 190
6 | Cc1ccc(CCOC(=O)c2cccnc2)cc1 | 3500
7 | Cc1nc(C)c(Cl)c(O)c1Cl | 18000
8 | O=C1CC(c2cccc(Br)c2)C(=O)N1 (stereo unspecified) | 1750
9 | COCc1c(CO)cnc(C)c1O | 2150
10 | CCOCCOc1ccc(Cl)cc1Cl | 1410
11 | CC(=O)C1(O)Cc2c(O)c3c(c(O)c2C(OC2CC(N)C(O)C(C)O2)C1)C(=O)c1c(O)cccc1C3=O (stereo unspecified) | 23
12 | O=NN(CCCl)C(O)=NC1C[C@H]2CC[C@@H]1C2 (stereo partly specified) | 83
13 | O=C(O)CSc1cccc2cccc(CCl)c12 | 2500
14 | COC(C)CC(=O)O (stereo unspecified) | 3030
15 | COC12C(COC(N)=O)C3=C(C(=O)C(C)=C(N)C3=O)N1CC1C2N1C (stereo unspecified) | 68
16 | Cc1ncc(CO)c(C=O)c1O | 2150
17 | COc1ccc2c(c1)OC(C)(C)[C@H](c1ccccc1)[C@H]2c1ccc(OCCN)cc1 | 500
18 | CCOC(=O)Nc1cccc(OC(=O)Nc2ccccc2)c1 | 9600
19 | CCOc1ccccc1OCCN[C@H](C)Cc1ccc(OC)c(S(N)(=O)=O)c1 | 650
20 | CN(C)P(=O)(N(C)C)N(C)C | 2650
21 | OC1(c2ccc(Cl)cc2)N=CN[n+]2ccc3ccccc3c21 (stereo unspecified) | 1300
22 | Cc1c(Cl)cc2[nH]c(C(F)(F)F)nc2c1[N+](=O)[O-] | 31.4
23 | O=[N+]([O-])c1c(Cl)c(Cl)c(Cl)c2nc(C(F)(F)F)[nH]c12 | 19.3
24 | Cc1cccc(O)c1 | 242
25 | O=C1c2ccccc2C(=O)N1CCc1ccccn1 | 860
26 | OCCOCCN(CCOCCO)CCN(CCOCCO)CCOCCO | 9900

Row | Structure (SMILES) | LD50 [mg/kg]
27 | CCCCOC(=O)c1ccccc1C(=O)OCCOCCOC(=O)c1ccccc1C(=O)OCCCC | 11000
28 | S=c1[nH]c2ccccc2[nH]1 | 300
29 | CCc1ccc(C)cc1 | 4850
30 | CN(C)CCC=C1c2ccccc2C(C)(C)c2ccccc21 | 170
31 | CCOP(=S)(OCC)Oc1nc(Cl)n(C(C)C)n1 | 27
32 | COC(=O)CCBr | 1600
33 | CCOC(=O)C1=CN(C)C2CCCC(C)N2C1=O (stereo unspecified) | 378
34 | CC(C)(C)[C@H](O)/C(=C\c1ccc(Cl)cc1)n1cncn1 | 430
35 | COC(COC(N)=O)C1=C(N2CC2)C(=O)C(C)=C(N2CC2)C1=O (stereo unspecified) | 27.3
36 | Cc1cccc(C)c1N(Cn1cccn1)C(=O)CCl | 1000
37 | CN(C)CCN(C)n1cc(-c2ccccc2)c2ccccc21 | 1160
38 | CC(=O)Oc1cccc(Oc2ccc(C(F)(F)F)cc2Cl)c1 | 2500
39 | OCC1CCCO1 (stereo unspecified) | 1600
40 | CC1(C)[C@H](C(=O)O[C@H](C#N)c2cccc(Oc3ccccc3)c2)[C@@H]1/C=C(\Cl)C(F)(F)F (single isomer, unassigned) | 56
41 | NCCCOCCOCCO | 6500
42 | CN(C)C(=O)C(CC[N@+]1([O-])CC[C@@](O)(c2ccc(Cl)cc2)CC1)(c1ccccc1)c1ccccc1 | 172
43 | CN(C)CC(=O)O | 3900
44 | CN(C)c1ccc(C=Cc2ccccc2)cc1 | 50
45 | O=S(=O)(O)c1ccc2c(Cc3cccc4cc(S(=O)(=O)O)ccc34)cccc2c1 | 3800
46 | CCC(C)(O)C#CC(C)(O)CC (stereo unspecified) | 1400
47 | CN1C(C(=O)Nc2ccccn2)=C(O)c2ccccc2S1(=O)=O | 216
48 | CCOP(=S)(OCC)SCn1nc(Br)ccc1=O | 30
49 | COc1nccnc1NS(=O)(=O)c1ccc(N)cc1 | 2740
50 | CC(C)NC1Cc2ccccc2Cc2ccccc21 (stereo unspecified) | 500
51 | C=CC(=O)OCCCCOC(=O)C=C | 587
